# Experimental data: patent US8969622B2, “Dendritic molecular intracellular transporters and methods of making and using same” (Vanderbilt University, priority 2006, dated 2015)
# Tested on: human microvascular endothelial cells (HMEC)
# Test: Internalization into human microvascular endothelial cells (HMEC), temperature effect and controls
# Type: cell-based
# Settings: 10 uM, 60 min, 37° C.
# Protocol: The human microvascular endothelial cells (HMEC) cells were incubated with conjugates (10 uM) for 2.5 min at 4° C. or at 37° C.
# The HMEC cells were incubated with conjugates (1 uM) for 30 min at 4° C. or at 37° C.
# (b) The HMEC cells were incubated with Boc-protected guanidinylated FD-2 (10 uM) for 60 min at 37° C.
# Internalization of FD-1 and FD-2 in mammalian cells was assessed using two different cell lines and a previously described method [Futaki, S.; Nakase, I.; Suzuki, T.; Youjun, Y.; Sugiura, Y. Biochemistry 2002, 41, 7925.] with NIH-3T3 fibroblasts and HMEC (human microvascular endothelial cells) and a Zeiss LSM 510 confocal microscope. […] [Futaki, S.; Nakase, I.; Suzuki, T.; Youjun, Y.; Sugiura, Y. Biochemistry 2002, 41, 7925.; Vivès, E.; Brodin, P.; Lebleu, B. J. Biol. Chem. 1997, 272, 16010.] Furthermore, the extent of internalization increased in an incubation time-dependent manner, and it was observed that after just 10 min, the fluorescence intensity of cells treated with FD-2 was near saturation. […] Without wishing to be bound by theory, it is believed that the length of the spacer at the terminal generation of the dendrimer can not only control the uptake rate, [Wender, P. A.; Kreider, E.; Pelkey, E. T.; Steinman, L.; Rothbard, J. B.; VanDeusen, C. L. Org. Lett. 2005, 7, 4815.] but also regulate the subcellular localization of the molecule and its putative cargo. […]
substance,measurement,value
fluorescein isothiocyanate [free FITC],fluorescence of treated cells (control experiments),no
